# In patent publication US20240360134A1, “PYRAZOLOPYRIMIDINES AND THEIR USES AS PDGFR INHIBITORS” (priority 2021, published 2024):
# Where two headings read alike, the source gives them in different places.
# Legend:
# VEGFR2, unphosphorylated = VEGFR2, unphosphorylated (Homo sapiens (Human), UniProt P35968); assay: VEGFR ADP GLO assay; format: biochemical; conditions: 5 nM VEGFR2, 1.2 mM ATP, 1 mg/mL Srctide, 180 min
# Experimental: Assay buffer stock contains 50 mM HEPES pH7.5, 10 mM MgCl2, 0.01% Brij-35, and 1 mM EGTA.
# Unphosphorylated VEGFR2. 52.6 μM in 50 mM Tris-HCl, pH 8.0, 50 mM NaCl, 5% Glycerol, 0.5 mM TCEP. Store at −80° C. in aliquots.
# 10 mg/mL srctide solution, prepared in Assay buffer (Assay buffer stock with 2 mM DTT, 0.1% Pluronic F-127, and 0.1 mg/mL ovalbumin). Sonicate 10 mg/ml Srctide solution for 10 minutes and then vacuum filter.
# Assay buffer. Add DTT to 2 mM, Pluronic F-127 to 0.1% and ovalbumin to 0.1 mg/mL to Assay buffer stock.
# 2× kinase solution. Make a working solution of 10 nM unphosphorylated VEGFR2 in Assay buffer. Vacuum filter 2× kinase solution prior to running assay. Keep on ice until use.
# 2× substrate/ATP solution. Make a working solution of 2 mg/mL srctide and 2.4 mM ATP in Assay buffer. Keep on ice until use.
# Step 1. Dispensing inhibitors/controls: Using Echo, dispense 10 nL/well compound serial dilutions in DMSO to columns 1-22 (in 384-well plates) or columns 1-44 (in 1536-well plates). Dilution series=11 pt, 3-fold dilutions. The top compound concentration in the source plate is 4 mM. The top compound concentration in the assay plate is 10 uM. Using Echo, dispense 10 nl/well DMSO to column 23 (in 384-well plates) or columns 45-47 (in 1536-well plates). These wells will serve as negative control wells Using Echo, dispense 10 nl/well 400 uM TAK-593 in DMSO to column 24 (in 384-well plates) or column 48 (in 1536-well plates). The final concentration of TAK-593 in the assay should be 1 uM. These wells will serve as positive control wells.
# Step 2. Pre-incubation of inhibitors with kinase: Add 2 μL/well 2× kinase solution. Centrifuge at 1000 rpm for 1 min. Incubate at room temperature for 30 min.
# Step 3. Kinase cascade reaction: Add 2 μL/well 2× substrate/ATP solution to initiate kinase reactions. Centrifuge at 1000 rpm for 1 min. Incubate at room temperature for 180 min.
# Final concentrations of components in the assay:
# Step 4. Quench: Add 2 uL/well ADP Glo Reagent+0.05% CHAPS. Centrifuge at 1000 rpm for 1 min; Incubate at room temperature for one hour.
# Step 5. Detection: Add 2 uL/well Kinase Detection Reagent+0.05% CHAPS. Centrifuge at 1000 rpm for 1 min; Incubate at room temperature for 1 hour; Read Luminescence on a plate reader.
# % Inhibition: % Inhibition=(NC−sample)/(NC−PC)*100 where NC is the mean of negative control (reactions without inhibitor), and PC is the mean of positive control (1 μM TAK-593).
# IC50 values are determined from a 4-parameter fit, using the following equation: Y=Bottom+(Top−Bottom)/(1+10^(Log IC50-X)*Hill Slope), where X=log10 of the compound concentration; top can be defined by PC; bottom defined by NC.
# PDGFRβ = PDGFRβ (Rattus norvegicus (Rat), UniProt Q05030); assay: PDGFRβ Cellular Assay (PDGFRb P-Y751 HTRF, PDGF-BB stimulated A10 cells); format: cell-based
# Experimental: Cell Culture and Preparation: Cells are cultured according to ATCC procedure (5) with the addition of the antibiotic penicillin-streptomycin. If working from frozen, cells should be thawed according to ATCC procedure. Depending on the cell density of frozen vial, cells will need time to recover from thaw. An 80% confluent T75 flask should be enough for one 384 well plate.
# Stock Solutions: Rat PDGFBB. A 100 ug/mL stock is prepared by reconstituting 50 ug in 500 μL of 4 mM HCl and 0.1% BSA. It can be stored for a month at 4° C., or aliquoted out and frozen in the −20/−80° C. to avoid multiple free-thaw cycles.
# 1× Cisbio cell lysis buffer. The cell lysis buffer is diluted 4-fold with molecular grade water. The blocking agent is then diluted 25-fold in the diluted lysis buffer.
# Antibody solutions. Equal amounts d2 and cryptate antibody are diluted 20-fold in detection buffer.
# Rat PDGFBB. A working stock of 100 ng/mL is created from the stock solution in 10% FBS culture media.
# Step 1: Plating Cells: Media from the A10 cell flask is aspirated. The cells are rinsed with PBS and then trypsinized to disperse the cell layer. The cells are then pelleted are resuspended to 1.25e5 cells/mL. […] Plates are covered and placed in the incubator (37° C. 5% CO2) overnight to allow cells to adhere.
# Step 2: Compound Dispense: Approximately 18 hours after plating, dispense 40 nL compound onto cells using Echo. […] The plate is returned to the incubator for 3 hours.
# After 10 minutes the media is removed by flicking the plate.
# Step 4: Cell lysis and antibody addition: 20 uL lysis buffer per well is added to the plate via Tempest. 5 uL antibody solution is added per well via the Tempest. The plate is placed on the shaker at 230 rpm for 1 hour at room temperature.
# Step 5: Detection: The plate is read using the HTRF module on the BMG Pherastar. Data is analyzed using Genedata Screener.
# IC50 values are determined from a 4-parameter fit, using the following equation: Y=Bottom+(Top−Bottom)/(1+10((Log IC50−X)*Hill slope)), where X=log10 of the compound concentration; top can be defined by PC; bottom defined by NC.
# [1] = A10 cells, 3 hours compound, 15 ng/mL PDGFbb for 10 minutes, read-out: PDGFR Cellular IC50
# Sequence of VEGFR2, unphosphorylated (P35968 whole entry, looked up): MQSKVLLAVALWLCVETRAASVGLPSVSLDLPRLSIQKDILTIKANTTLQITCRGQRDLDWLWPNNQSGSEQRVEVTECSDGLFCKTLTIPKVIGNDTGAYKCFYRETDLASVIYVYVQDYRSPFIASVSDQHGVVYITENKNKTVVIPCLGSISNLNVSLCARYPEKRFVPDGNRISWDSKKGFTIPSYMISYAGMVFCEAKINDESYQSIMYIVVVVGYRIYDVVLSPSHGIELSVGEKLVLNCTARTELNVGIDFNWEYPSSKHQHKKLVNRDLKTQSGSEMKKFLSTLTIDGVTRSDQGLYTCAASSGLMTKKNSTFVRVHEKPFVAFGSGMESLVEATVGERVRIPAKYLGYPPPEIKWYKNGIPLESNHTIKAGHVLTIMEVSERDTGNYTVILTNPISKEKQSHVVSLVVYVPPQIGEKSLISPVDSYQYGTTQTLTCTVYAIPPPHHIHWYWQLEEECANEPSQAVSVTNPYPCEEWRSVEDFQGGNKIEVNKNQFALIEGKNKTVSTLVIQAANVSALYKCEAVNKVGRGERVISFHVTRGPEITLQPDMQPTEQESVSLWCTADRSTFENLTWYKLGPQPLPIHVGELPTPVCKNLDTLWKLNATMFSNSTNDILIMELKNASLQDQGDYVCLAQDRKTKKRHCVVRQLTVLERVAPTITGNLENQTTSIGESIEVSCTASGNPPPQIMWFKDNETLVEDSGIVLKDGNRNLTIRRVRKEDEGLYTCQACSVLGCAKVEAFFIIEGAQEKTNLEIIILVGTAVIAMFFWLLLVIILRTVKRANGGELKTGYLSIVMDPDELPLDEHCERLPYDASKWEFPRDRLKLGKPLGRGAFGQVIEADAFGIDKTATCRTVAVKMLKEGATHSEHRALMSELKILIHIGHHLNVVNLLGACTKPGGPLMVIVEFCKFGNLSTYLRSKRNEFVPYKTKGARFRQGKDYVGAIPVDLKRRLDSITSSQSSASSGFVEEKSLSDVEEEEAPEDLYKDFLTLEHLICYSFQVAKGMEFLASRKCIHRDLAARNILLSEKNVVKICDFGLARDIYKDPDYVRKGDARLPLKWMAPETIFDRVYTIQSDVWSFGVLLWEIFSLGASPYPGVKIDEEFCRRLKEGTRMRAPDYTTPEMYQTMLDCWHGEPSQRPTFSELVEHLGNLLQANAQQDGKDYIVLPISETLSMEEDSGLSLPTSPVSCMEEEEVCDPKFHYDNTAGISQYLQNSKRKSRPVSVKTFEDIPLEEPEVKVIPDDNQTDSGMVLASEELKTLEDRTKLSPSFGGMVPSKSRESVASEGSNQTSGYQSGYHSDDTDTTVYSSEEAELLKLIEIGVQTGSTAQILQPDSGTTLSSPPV
# Sequence of PDGFRβ (Q05030 whole entry, looked up): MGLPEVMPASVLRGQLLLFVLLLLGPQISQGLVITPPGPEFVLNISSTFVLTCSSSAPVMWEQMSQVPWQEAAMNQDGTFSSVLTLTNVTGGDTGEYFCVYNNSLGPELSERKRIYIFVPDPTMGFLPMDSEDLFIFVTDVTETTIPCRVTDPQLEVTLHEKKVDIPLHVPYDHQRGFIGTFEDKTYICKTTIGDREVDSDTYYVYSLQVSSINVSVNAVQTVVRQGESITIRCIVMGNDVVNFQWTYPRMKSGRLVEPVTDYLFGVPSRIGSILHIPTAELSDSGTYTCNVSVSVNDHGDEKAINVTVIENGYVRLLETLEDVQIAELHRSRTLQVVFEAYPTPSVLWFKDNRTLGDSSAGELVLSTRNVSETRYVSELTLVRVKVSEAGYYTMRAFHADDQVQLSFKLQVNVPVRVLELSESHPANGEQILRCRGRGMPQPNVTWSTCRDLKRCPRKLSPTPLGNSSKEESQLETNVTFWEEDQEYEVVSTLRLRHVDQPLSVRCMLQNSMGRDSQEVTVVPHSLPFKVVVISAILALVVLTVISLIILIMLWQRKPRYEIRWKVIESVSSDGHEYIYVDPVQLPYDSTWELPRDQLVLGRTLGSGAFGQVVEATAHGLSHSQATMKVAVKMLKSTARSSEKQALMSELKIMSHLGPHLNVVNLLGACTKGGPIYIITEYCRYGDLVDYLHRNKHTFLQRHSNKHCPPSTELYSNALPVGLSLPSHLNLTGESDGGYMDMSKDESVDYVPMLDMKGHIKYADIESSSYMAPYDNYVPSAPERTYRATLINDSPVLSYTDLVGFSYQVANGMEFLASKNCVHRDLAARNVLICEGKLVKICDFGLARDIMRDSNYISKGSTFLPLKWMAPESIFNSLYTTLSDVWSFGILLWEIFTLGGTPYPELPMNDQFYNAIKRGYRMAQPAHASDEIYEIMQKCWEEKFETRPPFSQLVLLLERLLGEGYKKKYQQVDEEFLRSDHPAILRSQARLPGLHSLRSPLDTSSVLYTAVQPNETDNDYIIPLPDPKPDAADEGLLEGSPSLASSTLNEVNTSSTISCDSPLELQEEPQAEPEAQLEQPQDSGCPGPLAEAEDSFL
SMILES,"IC50 (VEGFR2, unphosphorylated)",IC50 (PDGFRβ),IC50 (PDGFRβ; [1])
"COCC1CCCN1CCNC(=O)c1cnc(C)c(Nc2nn(C)c3nc(Nc4cnn(C)c4)ncc23)c1 (stereo not shown) [Example 25, N-(2-(2-(methoxymethyl)pyrrolidin-1-yl)ethyl)-6-methyl-5-((1-methyl-6-((1-methyl-1H-pyrazol-4-yl)amino)-1H-pyrazolo[3,4-d]pyrimidin-3-yl)amino)nicotinamide]",> 7.5 µM,12.9 nM,
"Cc1ncc(C(=O)NCCN2CCC3(CCC3)C2)cc1Nc1nn(C)c2nc(Nc3cnn(C)c3)ncc12 [Example 83, N-(2-(6-azaspiro[3.4]octan-6-yl)ethyl)-6-methyl-5-((1-methyl-6-((1-methyl-1H-pyrazol-4-yl)amino)-1H-pyrazolo[3,4-d]pyrimidin-3-yl)amino)nicotinamide]",> 7.5 µM,26.2 nM,
"Cc1ncc(C(=O)NCCN2CCC3(CCO3)CC2)cc1Nc1nn(C)c2nc(Nc3cnn(C)c3)ncc12 [Example 19, N-(2-(1-oxa-7-azaspiro[3.5]nonan-7-yl)ethyl)-6-methyl-5-((1-methyl-6-((1-methyl-1H-pyrazol-4-yl)amino)-1H-pyrazolo[3,4-d]pyrimidin-3-yl)amino)nicotinamide]",> 7.5 µM,56 nM,
"Cc1ncc(NC(=O)CN(CCO)C2CCCC2)cc1Nc1nn(C)c2nc(Nc3cnn(C)c3)ncc12 [Example 79, 2-(cyclopentyl(2-hydroxyethyl)amino)-N-(6-methyl-5-((1-methyl-6-((1-methyl-1H-pyrazol-4-yl)amino)-1H-pyrazolo[3,4-d]pyrimidin-3-yl)amino)pyridin-3-yl)acetamide]",,,23.5 nM
"Cc1ncc(C(=O)NCCN2CCCC23COC3)cc1Nc1nn(C)c2nc(Nc3cnn(C)c3)ncc12 [Example 18, N-(2-(2-oxa-5-azaspiro[3.4]octan-5-yl)ethyl)-6-methyl-5-((1-methyl-6-((1-methyl-1H-pyrazol-4-yl)amino)-1H-pyrazolo[3,4-d]pyrimidin-3-yl)amino)nicotinamide]",> 7.5 µM,40.1 nM,
COC(=O)C(C)(C)c1cccc(Nc2ncc3c(Nc4cc(C(=O)NCCN5CCCC5(C)C)cnc4C)nn(C)c3n2)c1 [Example 46],,,18.5 nM
"Cc1ncc(NC(=O)CN2CC(F)(F)C2)cc1Nc1nn(C)c2nc(Nc3cnn(C)c3)ncc12 [Example 76, 2-(3,3-difluoroazetidin-1-yl)-N-(6-methyl-5-((1-methyl-6-((1-methyl-1H-pyrazol-4-yl)amino)-1H-pyrazolo[3,4-d]pyrimidin-3-yl)amino)pyridin-3-yl)acetamide]",,,13.1 nM
"Cc1ncc(NC(=O)CN2C[C@H](C)O[C@@H](C)C2)cc1Nc1nn(C)c2nc(Nc3cnn(C)c3)ncc12 (relative stereo) [Example 73, 2-(trans-2,6-dimethylmorpholino)-N-(6-methyl-5-((1-methyl-6-((1-methyl-1H-pyrazol-4-yl)amino)-1H-pyrazolo[3,4-d]pyrimidin-3-yl)amino)pyridin-3-yl)acetamide]",,,5.3 nM
"Cc1ncc(C(=O)NCCN2CCCC2(C)C)cc1Nc1nn(C)c2nc(Nc3ccn(C)n3)ncc12 [Example 34, N-(2-(2,2-dimethylpyrrolidin-1-yl)ethyl)-6-methyl-5-((1-methyl-6-((1-methyl-1H-pyrazol-3-yl)amino)-1H-pyrazolo[3,4-d]pyrimidin-3-yl)amino)nicotinamide]",> 7.5 µM,,
"Cc1ncc(NC(=O)CN2CCC3(CC3)C2)cc1Nc1nn(C)c2nc(Nc3cnn(C)c3)ncc12 [Example 74, N-(6-methyl-5-((1-methyl-6-((1-methyl-1H-pyrazol-4-yl)amino)-1H-pyrazolo[3,4-d]pyrimidin-3-yl)amino)pyridin-3-yl)-2-(5-azaspiro[2.4]heptan-5-yl)acetamide]",,,1.7 nM
"COCCn1cc(Nc2ncc3c(Nc4cc(NC(=O)CN5CCC56CCC6)cnc4C)nn(C)c3n2)cn1 [Example 123, N-(5-((6-((1-(2-methoxyethyl)-1H-pyrazol-4-yl)amino)-1-methyl-1H-pyrazolo[3,4-d]pyrimidin-3-yl)amino)-6-methylpyridin-3-yl)-2-(1-azaspiro[3.3]heptan-1-yl)acetamide]",,,4.7 nM
"Cc1ncc(NC(=O)CN(CCCO)C2CCCC2)cc1Nc1nn(C)c2nc(Nc3cnn(C)c3)ncc12 [Example 80, 2-(cyclopentyl(3-hydroxypropyl)amino)-N-(6-methyl-5-((1-methyl-6-((1-methyl-1H-pyrazol-4-yl)amino)-1H-pyrazolo[3,4-d]pyrimidin-3-yl)amino)pyridin-3-yl)acetamide]",,,16.6 nM
"Cc1ncc(C(=O)NCCN2CCCC2(C)C)cc1Nc1nn(C)c2nc(Nc3cnn(C)c3)ncc12 [Example 39, N-(2-(2,2-dimethylpyrrolidin-1-yl)ethyl)-6-methyl-5-((1-methyl-6-((1-methyl-1H-pyrazol-4-yl)amino)-1H-pyrazolo[3,4-d]pyrimidin-3-yl)amino)nicotinamide]",> 7.5 µM,,
"Cc1ncc(NC(=O)CN2CCC(F)(F)C2)cc1Nc1nn(C)c2nc(Nc3cnn(C)c3)ncc12 [Example 75, 2-(3,3-difluoropyrrolidin-1-yl)-N-(6-methyl-5-((1-methyl-6-((1-methyl-1H-pyrazol-4-yl)amino)-1H-pyrazolo[3,4-d]pyrimidin-3-yl)amino)pyridin-3-yl)acetamide]",,,4.9 nM
COC(=O)Cc1cccc(Nc2ncc3c(Nc4cc(C(=O)NCCN5CCCC5(C)C)cnc4C)nn(C)c3n2)c1 [Example 43],,,24 nM
"Cc1ncc(NC(=O)CN2CCC(F)(F)CC2)cc1Nc1nn(C)c2nc(Nc3cnn(C)c3)ncc12 [Example 72, 2-(4,4-difluoropiperidin-1-yl)-N-(6-methyl-5-((1-methyl-6-((1-methyl-1H-pyrazol-4-yl)amino)-1H-pyrazolo[3,4-d]pyrimidin-3-yl)amino)pyridin-3-yl)acetamide]",,,3.5 nM
"Cc1ncc(NC(=O)CN2CCC[C@@H]2C)cc1Nc1nn(C)c2nc(Nc3cnn(C)c3)ncc12 [Example 71, (S)—N-(6-methyl-5-((1-methyl-6-((1-methyl-1H-pyrazol-4-yl)amino)-1H-pyrazolo[3,4-d]pyrimidin-3-yl)amino)pyridin-3-yl)-2-(2-methylpyrrolidin-1-yl)acetamide]",,,1.7 nM
"Cc1ncc(NC(=O)CN2C[C@@H](C)O[C@@H](C)C2)cc1Nc1nn(C)c2nc(Nc3cnn(C)c3)ncc12 [Example 78, 2-(cis-2,6-dimethylmorpholino)-N-(6-methyl-5-((1-methyl-6-((1-methyl-1H-pyrazol-4-yl)amino)-1H-pyrazolo[3,4-d]pyrimidin-3-yl)amino)pyridin-3-yl)acetamide]",,,8.3 nM
